Source: US6204277A, “Propionic acid derivatives and applications thereof” (Japan Tobacco Inc., priority 1996, dated 2001)
pEC50: −log10 of the molar value.

Key:
3T3-L1 cells = assay: Evaluation of Insulin Sensitivity Using 3T3-L1 Cells (triglyceride accumulation); format: cell-based; conditions: Mus musculus, 96 h, insulin 10 ng/ml, 4 days, triglyceride increase by 10 μM pioglitazone taken as 100%, read-out: EC50 (dose necessary for a 50% increase of triglyceride)
Method: Evaluation of Insulin Sensitivity Using 3T3-L1 Cells 3T3-L1 cells (purchased from American Type Culture Collection) which were in the n=x+3 passage were purchased and subcultured until the passage number reached n=x+8. The cells were frozen in liquid nitrogen, thawed and suboultured till n=x+11. 0.05% Trypsin-0.53 mM ethylenediaminetetraacetic acid (EDTA) was added and the cells were harvested. The cells were suspended in Dulbecco's modified Eagle's medium (DMEM) [5% fetal bovine serum (FBS), supplemented with 5.6 mM glucose], plated on a 24 well plate at a concentration of 0.5×10^5 cells/well and cultured. Two days later, the medium was changed to DMEM [5% FBS, supplemented with 5.6 mM glucose] containing 1 μM dexamethasone and 0.5 mM isobutylmethylxanthine and the incubation was continued for 2 more days. The test compounds were dissolved in dimethyl sulfoxide and diluted 1000-fold with DMEM [2% FBS, supplemented with 5.6 mM glucose] containing insulin (10 ng/ml) to make the final concentration thereof to 0 nM-10 μM, and added to the cells, which cells were incubated for 4 days. After incubation, isopropanol was added by 200 μl per well and the cells were ruptured by a probe type ultrasonicator. The triglyceride amount was determined using a triglyceride determination kit. The activity of the compounds was determined by calculating relative triglyceride increase achieved by each compound when that achieved by 10 μM pioglitazone was taken as 100%, and expressed by the dose (EC50) necessary for a 50% increase of triglyceride. The test compounds were those of Examples 1-3, 5, 8, 15, 16, 18, 19, 22 and 28 and Reference Example 1. As a control compound, used was a known compound of the following formula. The above test concerns whether or not the insulin sensitivity of 3T3-L1 cells is promoted. […] When insulin acts on 3T3-L1 cells, it not only takes up glucose but permits accumulation of triglyceride in the cells. Thus, after allowing insulin to act, the cells are ruptured and triglyceride is quantitatively determined, whereby the degree of the action of insulin and the degree of sensitivity can be known.

diabetic mice (KK-Ay) = assay: Evaluation of Serum Glucose of Diabetic Mice; format: in vivo; conditions: Mus musculus, 96 h; KK-Ay male mice, oral in diet, 4 days; read-out: Serum glucose ED50 (dose corresponding to a -50% change)
Method: Evaluation of Serum Glucose of Diabetic Mice
Genetically obese, hyperglycemic, hyperinsulinemic and hyperlipidemic diabetic mice (KK-Ay, male, Clea Japan, Inc., 8 weeks of age) were used for the pharmacological tests. Before the initiation of the drug administration, about 100 μl of blood was taken from orbital venosus under light ether anesthesia, and serum glucose was measured as described below. Based on the obtained value and body weight, the mice were grouped (6 per group) in such a manner that there existed no differences between the groups.
The test compounds were those of Examples 1 and 5 and Reference Example 1, as well as the above-mentioned control compound.
The test compounds were respectively dissolved in ethanol (three levels of concentrations per compound) and added to a powdered diet (CRF-1, ORIENTAL YEAST CO., LTD.). The diet was homogeneously mixed and ethanol was evaporated. The diet was given to the above-mentioned mice for 4 days, and the test compounds were orally administered (3 doses each). To a control group, CRF-1 powdered diet was given.
At day 4, blood samples (ca. 200 μl) were taken again in the same manner as above, and serum was separated (12,000 rpm, 5 min.) and used for the determination. Serum glucose was measured by hexokinase method (LYQUITECH glucose-HK-test; Boehlinger Marnheim Yamanouchi). Used for the determination was an automatic analyzer COBAS FARA II (Roche).
Changes in percentage of serum glucose of each group were calculated as follows from the values obtained at day 4 from the control group and the group administered with test compounds. [formula]
The changes in percentage of serum glucose was plotted on the axis of ordinates and the dose (mg/kg/day) of the test compound was plotted on the axis of abscissa (log), and the dose corresponding to a -50% change was read and taken as the ED50 of each test compound.

Row | SMILES | pEC50 (3T3-L1 cells) | ED50 (diabetic mice (KK-Ay)) [mg/kg]
1 | COC(=O)NC(=O)C(Cc1ccc(OCCc2nc(-c3ccccc3)oc2C)cc1)C(=O)OC (centres unmarked) [Example 8, Methyl 2-methoxycarbonylcarbamoyl-3-[4-[2-(5-methyl-2-phenyl-4-oxazolyl)ethoxy]phenyl]propionate] | 8.15 | 
2 | COC(=O)C(Cc1ccc(OCCc2nc(-c3ccccc3)oc2C)cc1)C(=O)O (centres unmarked) [Example 1, 2-Methoxycarbonyl-3-[4-[2-(5-methyl-2-phenyl-4-oxazolyl)ethoxy]phenyl]propionic acid] | 9.35 | 0.12
3 | Cc1oc(-c2ccccc2)nc1CCOc1ccc(CC(C)(C(N)=O)C(=O)O)cc1 (centres unmarked) [Example 28, 2-Carbamoyl-2-methyl-3-[4-[2-(5-methyl-2-phenyl-4-oxazolyl)ethoxy]phenyl]propionic acid] | 7.14 | 
4 | CSC(=O)NC(=O)CCc1ccc(OCCc2nc(-c3ccccc3)oc2C)cc1 [Example 22] | 7.05 | 
5 | Cc1oc(-c2ccccc2)nc1CCOc1ccc(CC(C(N)=O)C(=O)O)cc1 (centres unmarked) [Example 3, 2-Carbamoyl-3-[4-[2-(5-methyl-2-phenyl-4-oxazolyl)ethoxy]phenyl]propionic acid] | 6.82 | 
6 | Cc1oc(-c2ccccc2)nc1CCOc1ccc(CCC(N)=O)cc1 [Example 18, 3-[4-[2-(5-Methyl-2-phenyl-4-oxazolyl)ethoxy]phenyl]propionamide] | 7.19 | 
7 | Cc1oc(-c2cc3ccccc3s2)nc1CCOc1ccc(CCC(=O)NC(N)=O)cc1 [Example 15, N-[3-[4-[2-(2-(Benzothiophen-2-yl)-5-methyl-4-oxazolyl)ethoxy]phenyl]propionyl]urea] | 7.05 | 
8 | CCc1ccc(CCOc2ccc(CC3SC(=O)NC3=O)cc2)nc1 (centres unmarked) [Control compound, reference compound] | 6.74 | 10.6
9 | COC(=O)C(Cc1ccc(OCCc2nc(-c3ccccc3)oc2C)cc1)C(=O)OC [Reference Example 1, Dimethyl 2-[4-[2-(5-methyl-2-phenyl-4-oxazolyl)ethoxy]benzyl]malonate] | 9.42 | 0.17
10 | COC(=O)C(Cc1ccc(OCCc2nc(-c3ccccc3)oc2C)cc1)C(N)=O (centres unmarked) [Example 2, Methyl 2-carbamoyl-3-[4-[2-(5-methyl-2-phenyl-4-oxazolyl)ethoxy]phenyl]propionate] | 7.05 | 
11 | COC(=O)NC(=O)CCc1ccc(OCCc2nc(-c3ccccc3)oc2C)cc1 [Example 19, Methyl N-[3-[4-[2-(5-methyl-2-phenyl-4-oxazolyl)ethoxy]phenyl]propionyl]carbamide] | 7.05 | 
12 | Cc1oc(-c2ccccc2)nc1CCOc1ccc(CC(C(=O)O)C(=O)O)cc1 [Example 5, 2-[4-[2-(5-Methyl-2-phenyl-4-oxazolyl)ethoxy]benzyl]malonic acid] | 8.14 | 2.7
13 | COC(=O)CCc1ccc(OCCc2nc(-c3ccccc3)oc2C)cc1 [Example 16, Methyl 3-[4-[2-(5-methyl-2-phenyl-4-oxazolyl)ethoxy]phenyl]propionate] | 7.28 | 
